Entries after “also recorded” stand apart in the source; their conditions may differ.
Legend:
[1] = tested on: HL-60 cells (NADPH oxidase / respiratory burst); test: O2- formation by DMSO-differentiated HL-60 cells, PMA-stimulated; format: cell-based; conditions: various concentrations
Description: HL-60 cells were maintained in stationary culture in RPMI 1640 medium (Gibco, Grand Island, NY) containing 10% fetal bovine serum at 37° C in an atmosphere of 95 air and 5% CO2. The cells (about 8×10^5 /ml) were differentiated into neutrophil-like cells by treatment with 1.3% DMSO for six days (Harris, et al., J. Leukocyte Biol. 37: 407-422 (1985)). The cells were treated with the indicated levels of compactin or lovastatin by addition of a 1,000-fold concentrated stock solution to the appropriate concentration on day 4 of differentiation. […] In studies of the protective effect of mevalonic acid, the compound was added as the mevalonolactone (Sigma Chemical Co., St. Louis, MO) at a concentration of 1 mM to the cell culture on days 4 to 6. […]
O2 --formation by HL-60 cells was assessed by the SOD-sensitive reduction of cytochrome c. […] Cytochrome c reduction at 550nm was continuously monitored and maximal rate and extent of the reaction calculated.

Rap1 = test: Metabolic labeling and immune precipitation of processed and unprocessed Rap1 in HL-60 cells; format: cell-based; conditions: various concentrations
Description: Analysis of Rapl processing in HL-60 cells was performed by labeling cells (8×10^5 /ml) with 200μCi/ml ^35 S-Trans-label (ICN Biomedicals, Inc., Costa Mesa, CA) for 5 days during cell differentiation with 1.3% DMSO in Cys-Met-free medium containing 12% dialyzed fetal bovine serum. Various concentrations of compactin were included as indicated. Metabolically labeled cells were collected, washed once with isotonic NaCl, treated with 2.5 mM Hepes pH 7.5, 100 mM NaCl, 1 mM EDTA, 1 % Triton X-100, 2.5 μM PMSF, and 100U aprotonin. After a 15-minute incubation on ice, the cell lysates were pelleted in a microfuge for 2 minutes and then the supernatant was transferred to clean tubes containing 100 μl 4M NaCl, 5 μl 10% SDS, and 50 μl10% deoxycholate. The samples were boiled for two minutes, pelleted, and transferred to clean tubes containing 2 μl of the primary antibody, 142-24E05 (Chesa, et al., PNAS USA 84: 3234-3238 (1987); Bokoch, et al., J. Biol. Chem. 263: 16744-16749 (1988)). […]
In untreated cells, Rapl was present largely in the membrane fraction, with very little Rapl in the cytosol. […] Isoprenylation of Rapl was also assessed by metabolic labeling of the HL-60 cells with immune precipitation of Rap1, and analysis of the 22kD processed and 23kD unprocessed forms of Rap1 (Buss, et al., Mol. Cell, Biol. 11: 1523-1527 (1991)).

**Q.** With CC[C@H](C)C(=O)O[C@H]1CCC=C2C=C[C@H](C)[C@H](CC[C@@H]3C[C@@H](O)CC(=O)O3)[C@H]21 [compactin] as the molecule, how does the “inhibition of O2- formation in response to PMA” value [1] read?
**A.** loss in the ability of PMA to stimulate O2 --formation; also recorded: dose-dependent inhibition

**Q.** And the “22 kD processed form of Rap1” value (Rap1)?
**A.** dose-dependent decrease

**Q.** What about the “23 kD unprocessed form of Rap1” value (Rap1) of the same molecule?
**A.** proportional increase
